The source of these data is the supplement of paper PMC10307832.

Test in all cases: relative viability (nuclei count vs DMSO), 5 days (fraction); higher = more cells survive
Compound in test [1]: COc1cc2nc(N3CCCN(C)CC3)nc(NC3CCN(Cc4ccccc4)CC3)c2cc1OC + CS(=O)(=O)CCNCc1ccc(-c2ccc3ncnc(Nc4ccc(OCc5cccc(F)c5)c(Cl)c4)c3c2)o1 [Lapatinib] (partner 2 µM)
A digest of the protocol:
(§1)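 A single step with final 0.05% Triton X-100, 1% formaldehyde and 1 ug/ml Hoechst fixed the cells and stained nuclei 5 days after treatment. Lung cancer cell lines in 1536-well plates had been treated by pin tool the day after seeding with one drug alone or a fixed anchor-drug dose plus five library-drug doses (not always all listed) in √10 steps, and nuclei were counted on 4× images. Relative viability is the ratio of nuclei in treated wells to nuclei in vehicle wells, taken as the median of duplicate plates.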

Compound in test [2]: Cc1cc([C@@H](C)Nc2ccccc2C(=O)O)c2nc(N3CCOCC3)cc(=O)n2c1 [AZD6482] + CC1(C)CCC(c2ccc(Cl)cc2)=C(CN2CCN(c3ccc(C(=O)NS(=O)(=O)c4ccc(N[C@H](CCN5CCOCC5)CSc5ccccc5)c(S(=O)(=O)C(F)(F)F)c4)cc3)CC2)C1 [Navitoclax] (partner 0.5 µM)
A digest of the protocol:
as §1

Compound in test [3]: Cc1cc([C@@H](C)Nc2ccccc2C(=O)O)c2nc(N3CCOCC3)cc(=O)n2c1 [AZD6482] + CC(=O)Nc1cccc(-n2c(=O)n(C3CC3)c(=O)c3c(Nc4ccc(I)cc4F)n(C)c(=O)c(C)c32)c1 [Trametinib] (partner 0.02 µM)
In outline: as §1

Compound in test [4]: Cc1cc([C@@H](C)Nc2ccccc2C(=O)O)c2nc(N3CCOCC3)cc(=O)n2c1 [AZD6482] + Nc1nc2[nH]cc(CCc3ccc(C(=O)N[C@@H](CCC(=O)O)C(=O)O)cc3)c2c(=O)[nH]1 [Pemetrexed] (partner 0.2 µM)
In outline:
as §1

As for UMC-11, the relative viability is 0.93 in test [1] (first compound 0.2 µM); 1.12 in test [1] (first compound 0.6325 µM); 1.03 in test [1] (first compound 2 µM); 0.656 in test [1] (first compound 6.325 µM); 0.331 in test [2] (first compound 0.08 µM); 0.329 in test [2] (first compound 0.253 µM). Also, the relative viability in test [2] (first compound 0.8 µM) was found to be 0.313; in test [2] (first compound 2.53 µM) it was 0.309; in test [2] (first compound 8 µM), 0.275; in test [3] (first compound 0.08 µM), 0.681; in test [3] (first compound 0.253 µM), 0.659; in test [3] (first compound 0.8 µM), 0.705. Further, the relative viability is 0.571 in test [3] (first compound 2.53 µM); 0.9 in test [3] (first compound 8 µM); 0.752 in test [4] (first compound 0.08 µM); 0.822 in test [4] (first compound 0.253 µM); 0.811 in test [4] (first compound 0.8 µM); 0.633 in test [4] (first compound 2.53 µM). The relative viability in test [4] (first compound 8 µM) was determined as 0.738.
